Laboratory results published in PMC4170777, “Effect of Temperature on Xylanase II from Trichoderma reesei QM 9414: A Calorimetric, Catalytic, and Conformational Study” (Enzyme Research, 2014).

Target: T1, xylanase II (XYN II) (Trichoderma reesei, UniProt P36217)
T1 construct: gene xyn2; native secreted enzyme purified from wheat-straw culture supernatant of T. reesei QM 9414
Assay: differential scanning calorimetry
Format: binding
Details: 0.4 M GL, 1 mg/mL protein, 0.1 M sodium citrate pH 5, scan rate 15°C/h; absolute Tm, not a shift; control without GL 57.27°C (irreversible)
Excerpt: differential scanning calorimetry on xylanase II (XYN II)

T1 sequence (P36217 34-223): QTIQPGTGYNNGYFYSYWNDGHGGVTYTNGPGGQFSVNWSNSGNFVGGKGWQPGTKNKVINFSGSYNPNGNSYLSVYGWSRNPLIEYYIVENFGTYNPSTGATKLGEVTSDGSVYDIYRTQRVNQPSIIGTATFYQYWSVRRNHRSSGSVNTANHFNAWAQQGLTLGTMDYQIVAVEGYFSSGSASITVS

Global: 54.1 °C
SMILES: O=C1O[C@H](CO)[C@@H](O)[C@H](O)[C@H]1O (mixture of isomers) [GL, D-glucono-1,5-lactone]
